Data on three molecules can be found in patent publication US12202840B2, “Compounds for the treatment or alleviation of disorders associated with Tau aggregates” (AC Immune SA, priority 2018, dated 2025).

A value given as a limit tells only on which side of the number the result lay.

Experiment [1] deals with T1, flTau aggregates (longest isoform of human Tau, 2N4R; 441 amino acids) (Homo sapiens, UniProt P10636).
T1 construct: 35 μM of recombinant full-length (fl)Tau in PBS were aggregated for 24 hours; made in house; host or cells: bacteria
T1 sequence (P10636 1-441 isoform P10636-8): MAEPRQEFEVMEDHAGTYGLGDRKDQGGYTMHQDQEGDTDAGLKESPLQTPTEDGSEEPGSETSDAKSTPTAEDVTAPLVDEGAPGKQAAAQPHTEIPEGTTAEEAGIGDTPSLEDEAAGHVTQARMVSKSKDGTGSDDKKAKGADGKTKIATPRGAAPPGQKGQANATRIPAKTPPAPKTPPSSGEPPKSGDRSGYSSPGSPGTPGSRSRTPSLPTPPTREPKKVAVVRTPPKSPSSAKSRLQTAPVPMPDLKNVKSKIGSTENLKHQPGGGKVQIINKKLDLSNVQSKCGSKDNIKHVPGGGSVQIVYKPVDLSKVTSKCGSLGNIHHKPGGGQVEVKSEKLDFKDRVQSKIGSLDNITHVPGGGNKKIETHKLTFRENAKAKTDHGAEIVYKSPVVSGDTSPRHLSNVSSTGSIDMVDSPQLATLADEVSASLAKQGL
The experiment is described as follows: Full-length Tau (flTau) disaggregation assay by Thioflavin T (ThT). It is filed as biochemical. The conditions noted are these: 2 μM flTau aggregates, 160 to 0.04 μM compound, 30 minutes RT, ThT fluorescence. As to the method:
Biological Assay Description Full-Length Tau (flTau) Disaggregation Assay by Thioflavin T (ThT)
The longest isoform of human Tau (2N4R; 441 amino acids) was expressed in bacteria and purified. For the Tau disaggregation assay by ThT, 35 μM of recombinant full-length (fl)Tau in PBS were aggregated for 24 hours at 37° C. in presence of 50 μM of heparin (Sigma-Aldrich) and 10 mM of DTT (Sigma-Aldrich) under shaking at 750 RPM. Compounds were dissolved in anhydrous dimethyl sulfoxide (DMSO, Sigma-Aldrich) to reach a concentration of 10 mM.
(§1) flTau aggregates and serial dilutions of compounds were mixed together in PBS (volume 50 μL) to a final concentration of 2 μM of flTau aggregates and from 160 to 0.04 μM of compounds. The mixture was incubated for 30 minutes at room temperature (RT), then 40 μL of this mixture were transferred into a black 384-well plate assay (Perkin-Elmer) and mixed with 10 μL of 100 μM ThT in 250 mM glycine (both from Sigma-Aldrich) in PBS. Fluorescence (relative fluorescence units; RFU) was measured in monoplicate or duplicate on a Tecan reader (excitation: 440 nm; emission: 485 nm). Percentage of flTau disaggregation was then calculated and the halfmaximal effective concentration (EC50) was determined using GraphPad Prism version 5 (GraphPad Software) assuming a one-binding site fitting model.

The target in experiment [2] is T2, K18 aggregates (Tau K18 fragment, amino acids 244 to 372 of human Tau441) (Homo sapiens, UniProt P10636).
T2 construct: encompassing amino acids 244 to 372 of the longest isoform (2N4R) of human Tau441; host or cells: bacteria
T2 sequence (P10636 561-689): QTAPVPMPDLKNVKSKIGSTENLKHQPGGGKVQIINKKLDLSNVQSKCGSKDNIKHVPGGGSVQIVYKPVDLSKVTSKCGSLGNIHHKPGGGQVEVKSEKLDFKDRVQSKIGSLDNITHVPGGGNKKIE
Description: Tau K18 disaggregation assay by ThT. As to conditions: 2 μM K18 aggregates, 160 to 0.04 μM compound, 30 minutes RT, ThT fluorescence; read-out: TauK18 disaggregation EC50. It is filed as biochemical. As to the method:
Tau K18 Disaggregation Assay by ThT
as §1, with “The Tau K18 fragment, encompassing amino acids 244 to 372 of the longest isoform (2N4R) of human Tau441, was expressed in bacteria and purified or bought from SignalChem. For the K18 disaggregation assay by ThT, 35 μM of recombinant K18 in PBS were aggregated for 24 hours at 37° C. in presence of 50 μM of heparin (Sigma-Aldrich) and 10 mM of DTT (Sigma-Aldrich) under shaking at 750 RPM. Compounds were dissolved in anhydrous dimethyl sulfoxide (DMSO, Sigma-Aldrich) to reach a concentration of 10 mM. K18 aggregates” for “flTau aggregates”, “of K18” for “of flTau”, “and half maximal” for “and the halfmaximal”

Experiment [3] deals with human neuroblastoma cell line overexpressing the full-length form of human Tau carrying the P301L mutation. The experiment is described as follows: Reduction of intracellular Tau aggregation (AlphaLISA). It is filed as cell-based. The conditions noted are these: compound at 5 μM, 24 h; aggregated Tau normalized to total Tau, relative to DMSO-treated cells. As to the method: Reduction of Intracellular Tau Aggregation
A human neuroblastoma cell line overexpressing the full-length form of human Tau carrying the P301L mutation was cultured in complete medium [DMEM-F12 4.5 g/L Glutamax (Invitrogen), 15% FBS (Biochrom), 1% Peni/Strep (Invitrogen) supplemented with 2.5 μg/ml of G418 (Sigma-Aldrich) selection antibiotic]. The day before the experiment 5×10^5 cells/well were plated in a 6 well plate in 3 mL of complete medium. The next day, cells were incubated with DMSO or a compound of the present invention at a 5 μM for additional 24 h at 37° C. After incubation, cells were trypsinized, resupsended in 100 μl of homogenization buffer [25 mM Tris-HCl pH 7.4, 150 mM NaCl, 1 mM EDTA, 1 mM EGTA containing phosphatase inhibitors (30 mM NaF, 0.2 mM Na3VO4, 1 nM Okadaic acid, 1 mM PMSF, 5 mM Na4P2O7) and protease inhibitor cocktail (Complete™, Roche)], and then physically lysed with three rapid cycles of freezing and thawing. Samples were then directly tested in the AlphaLISA assay.
Phosphorylated, aggregated, and total Tau were quantified by AlphaLisa using the following antibody pairs: • HT7-Acceptor beads+biotin (BT)-Tau13-Donor beads: Total Tau • HT7-Acceptor beads+biotin (BT)-HT7-Donor beads: Aggregated human Tau
The Tau13 (Abcam) was biotinylated using EZ-Link® NHS-PEO Solid Phase biotinylation kit (Thermo Scientific), while the HT7-biotin was from a commercial source (Thermo Scientific).
For each antibody pairs the concentration of acceptor beads and biotinylated antibodies was optimized. All samples were first tested in a dilution series in PBS in order to identify the linear range and optimal dilution for each sample and assay. For the final protocol, the following reagents were added in a 384-well white OptiPlate (Perkin Elmer): • 5 μL of test diluted sample • 20 μL of the mixture biotin-mAb acceptor beads at the following final concentrations: • HT7-BT at 1.25 nM in combination with HT7-Acc beads at 10 μg/ml • Tau13-BT at 5 nM in combination with HT7-Acc beads at 2.5 μg/ml
After incubation of this mixture at room temperature for 1 h, 25 μL of Streptavidin Donor beads (Perkin Elmer) at 25 μg/mL were added in the dark. Plates were analyzed after 30 min incubation using the EnSpire Alpha instrument and EnSpire Workstation version 3.00.
Data for aggregated Tau were normalized to total Tau and then expressed as percentage of the DMSO-treated cells.

With `CC(C)N1CCc2c(c3ccc(Nc4ccc5nc(N6CCOCC6)sc5c4)nc3n2C)C1` [Example 1], the EC50 in experiment [1] is less than 10 µM; in experiment [2], 10 to 25 µM. In addition, the “% Reduction of intracellular Tau aggregation” value (“% Reduction” for short) in experiment [3] is reported as “+ (+ %25 < x < 10)”.
On to `CN(C)[C@@H]1CCc2c(c3ccc(Nc4ccc5sc(N6CCOCC6)nc5c4)nc3n2C)C1` [Example 2], for which the EC50 in experiment [1] and in experiment [2] was less than 10 µM each time. The “% Reduction” value in experiment [3] is listed as “+ (+ %25 < x < 10)”.
Consider `CN(C)[C@@H]1CCc2c(c3ccc(Nc4ccc5nc(N6CCOCC6)sc5c4)nc3n2C)C1` [Example 12], for which the EC50 in experiment [1] and in experiment [2] was less than 10 µM each time. Besides, in experiment [3], the “% Reduction” value was “++ (++ %50 < x < 25)”.
